Values joined by “and” are separate entries in the source; they are usually repeats but may differ in a detail not shown here. Identical values can stand only once.
System: NCI-H196 complex spheroids with HUVEC/MSC, growth % T/C
Experiment: Anticancer human tumor NCI-H196 cell line growth inhibition [Asc];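 note: spheroids exposed to compound for 7 days before measurement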;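 for viability, T/C: 100% = DMSO vehicle control wells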
Conditions: for viability, T/C: stronger effect = lower value; active = viability on the fitted dose curve at most 10% of control; inactive = the rest
Summary of the method: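 Tumor cells were grown as complex spheroids with human endothelial cells (HUVEC) and human mesenchymal stem cells as stroma. Agents were tested alone and in combination, in half-log steps down from the clinical Cmax, or from 10 microM where Cmax was unknown.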

[1] = curve of first compound, second compound 0.1 µM
[2] = curve of first compound, second compound 0.316 µM
[3] = curve of first compound, second compound 1 µM
[4] = curve of first compound, second compound 3.16 µM
[5] = curve of first compound, second compound 10 µM
[6] = second compound 0.1 µM, first compound 0.0316 µM
[7] = second compound 0.1 µM, first compound 0.1 µM
[8] = second compound 0.316 µM, first compound 0.0316 µM
[9] = second compound 0.316 µM, first compound 0.1 µM
[10] = second compound 1 µM, first compound 0.0316 µM
[11] = second compound 1 µM, first compound 0.1 µM
[12] = second compound 3.16 µM, first compound 0.0316 µM
[13] = second compound 3.16 µM, first compound 0.1 µM
[14] = second compound 10 µM, first compound 0.0316 µM
[15] = second compound 10 µM, first compound 0.1 µM
[16] = second compound 0.1 µM, first compound 0.316 µM
[17] = second compound 0.1 µM, first compound 1 µM
[18] = second compound 0.1 µM, first compound 3.16 µM
[19] = second compound 0.1 µM, first compound 10 µM
[20] = second compound 0.316 µM, first compound 0.316 µM
[21] = second compound 0.316 µM, first compound 1 µM
[22] = second compound 0.316 µM, first compound 3.16 µM
[23] = second compound 0.316 µM, first compound 10 µM
[24] = second compound 1 µM, first compound 0.316 µM
[25] = second compound 1 µM, first compound 1 µM
[26] = second compound 1 µM, first compound 3.16 µM
[27] = second compound 1 µM, first compound 10 µM
[28] = second compound 3.16 µM, first compound 0.316 µM
[29] = second compound 3.16 µM, first compound 1 µM
[30] = second compound 3.16 µM, first compound 3.16 µM
[31] = second compound 3.16 µM, first compound 10 µM
[32] = second compound 10 µM, first compound 0.316 µM
[33] = second compound 10 µM, first compound 1 µM
[34] = second compound 10 µM, first compound 3.16 µM
[35] = second compound 10 µM, first compound 10 µM

NC1CCC(NC2CC2c2ccccc2)CC1 (configuration not stated) + Cc1c(S(C)(=O)=O)c(-c2cc(F)cc(N3CCN(c4ccc(NS(=O)(=O)c5ccc(NC(CCN6CCC(C(=O)OCCCP(=O)(O)O)CC6)CSc6ccccc6)c(S(=O)(=O)C(F)(F)F)c5)cc4)CC3)c2)c(-c2ccc(Cl)cc2)n1C(C)C
inactive: viability, T/C (second compound 0.1 µM, first compound 0.000316 µM) 91.7% | viability, T/C (second compound 0.1 µM, first compound 0.001 µM) 100% | viability, T/C (second compound 0.1 µM, first compound 0.00316 µM) 84.5% | viability, T/C (second compound 0.1 µM, first compound 0.01 µM) 93.7% | viability, T/C [6] 93.1% | viability, T/C [7] 85.7% | viability, T/C (second compound 0.316 µM, first compound 0.000316 µM) 91.8% | viability, T/C (second compound 0.316 µM, first compound 0.001 µM) 88.7% | viability, T/C (second compound 0.316 µM, first compound 0.00316 µM) 97% | viability, T/C (second compound 0.316 µM, first compound 0.01 µM) 96.7% | viability, T/C [8] 97.5% | viability, T/C [9] 91.6% | viability, T/C (second compound 1 µM, first compound 0.000316 µM) 89.1% | viability, T/C (second compound 1 µM, first compound 0.001 µM) 88.7% | viability, T/C (second compound 1 µM, first compound 0.00316 µM) 89.8% | viability, T/C (second compound 1 µM, first compound 0.01 µM) 85.1% | viability, T/C [10] 87.5% | viability, T/C [11] 80% | viability, T/C (second compound 3.16 µM, first compound 0.000316 µM) 79.4% | viability, T/C (second compound 3.16 µM, first compound 0.001 µM) 86.6% | viability, T/C (second compound 3.16 µM, first compound 0.00316 µM) 79.2% | viability, T/C (second compound 3.16 µM, first compound 0.01 µM) 75.9% | viability, T/C [12] 78% | viability, T/C [13] 76% | viability, T/C (second compound 10 µM, first compound 0.000316 µM) 69.7% | viability, T/C (second compound 10 µM, first compound 0.001 µM) 73.5% | viability, T/C (second compound 10 µM, first compound 0.00316 µM) 69.3% | viability, T/C (second compound 10 µM, first compound 0.01 µM) 74% | viability, T/C [14] 76.6% | viability, T/C [15] 71.1%
> 0.1 µM: IC50 [1] | IC50 [2] | IC50 [3] | IC50 [4] | IC50 [5]

C=CC(=O)N1CCN(c2nc(=O)n(-c3c(C)ccnc3C(C)C)c3nc(-c4c(O)cccc4F)c(F)cc23)C(C)C1 (configuration not stated) + Cc1c(S(C)(=O)=O)c(-c2cc(F)cc(N3CCN(c4ccc(NS(=O)(=O)c5ccc(NC(CCN6CCC(C(=O)OCCCP(=O)(O)O)CC6)CSc6ccccc6)c(S(=O)(=O)C(F)(F)F)c5)cc4)CC3)c2)c(-c2ccc(Cl)cc2)n1C(C)C
> 10 µM: IC50 [1] | IC50 [2] | IC50 [3] | IC50 [4] | IC50 [5]
inactive: viability, T/C [6] 103% | viability, T/C [7] 93.2% | viability, T/C [16] 96.1% | viability, T/C [17] 102% | viability, T/C [18] 96% | viability, T/C [19] 97.9% | viability, T/C [8] 92.1% | viability, T/C [9] 97.4% | viability, T/C [20] 96% | viability, T/C [21] 109% | viability, T/C [22] 104% | viability, T/C [23] 96.5% | viability, T/C [10] 95.5% | viability, T/C [11] 92.4% | viability, T/C [24] 93.9% | viability, T/C [25] 88% | viability, T/C [26] 110% | viability, T/C [27] 85.7% | viability, T/C [12] 87.9% | viability, T/C [13] 87.1% | viability, T/C [28] 83.8% | viability, T/C [29] 87.8% | viability, T/C [30] 84.9% | viability, T/C [31] 80% | viability, T/C [14] 73.9% | viability, T/C [15] 79.6% | viability, T/C [32] 79.8% | viability, T/C [33] 75.3% | viability, T/C [34] 78.1% | viability, T/C [35] 66.8%

COc1c(OCCCN2CCOCC2)ccc2c3n(c(=NC(=O)c4cnc(N)nc4)nc12)CCN3
inactive: viability, T/C (compound 0.00316 µM) 96% and 93% and 109% | viability, T/C (compound 0.01 µM) 91.4% and 90.6% and 101% | viability, T/C (compound 0.0316 µM) 94.1% and 100% and 108% | viability, T/C (compound 0.1 µM) 77.4% and 86.4% and 90.1% | viability, T/C (compound 0.316 µM) 67.9% and 69.6% and 69.5% | viability, T/C (compound 1 µM) 56.8% and 50.8% and 51%
> 1 µM: IC50 (curve of compound)

C=CC(=O)N1CCN(c2nc(=O)n(-c3c(C)ccnc3C(C)C)c3nc(-c4c(O)cccc4F)c(F)cc23)C(C)C1 (configuration not stated) + CNC(C)C(=O)NC1CN(S(=O)(=O)c2cccc(S(=O)(=O)N3CCC4CCC(C(=O)NC(c5ccccc5)c5ccccc5)N4C(=O)C(NC(=O)C(C)NC)C3)c2)CCC2CCC(C(=O)NC(c3ccccc3)c3ccccc3)N2C1=O
< 0.0316 µM: IC50 (curve of first compound, second compound 0.01 µM) | IC50 (curve of first compound, second compound 0.0316 µM) | IC50 [1] | IC50 [2] | IC50 [3]
active: viability, T/C (second compound 0.01 µM, first compound 0.0316 µM) 8.2% | viability, T/C (second compound 0.01 µM, first compound 0.1 µM) 7.68% | viability, T/C (second compound 0.01 µM, first compound 0.316 µM) 5.38% | viability, T/C (second compound 0.01 µM, first compound 1 µM) 6.44% | viability, T/C (second compound 0.01 µM, first compound 3.16 µM) 8.71% | viability, T/C (second compound 0.01 µM, first compound 10 µM) 9.87% | viability, T/C (second compound 0.0316 µM, first compound 0.0316 µM) 3.84% | viability, T/C (second compound 0.0316 µM, first compound 0.1 µM) 5.12% | viability, T/C (second compound 0.0316 µM, first compound 0.316 µM) 5.38% | viability, T/C (second compound 0.0316 µM, first compound 1 µM) 8.69% | viability, T/C (second compound 0.0316 µM, first compound 3.16 µM) 6.93% | viability, T/C (second compound 0.0316 µM, first compound 10 µM) 7.56% | viability, T/C [6] 3.27% | viability, T/C [7] 3.83% | viability, T/C [16] 3.69% | viability, T/C [17] 4.2% | viability, T/C [18] 7.47% | viability, T/C [19] 9.85% | viability, T/C [8] 3.58% | viability, T/C [9] 3.64% | viability, T/C [20] 6.15% | viability, T/C [21] 3.67% | viability, T/C [22] 4.47% | viability, T/C [23] 6.52% | viability, T/C [10] 3.22% | viability, T/C [11] 3.89% | viability, T/C [24] 3.25% | viability, T/C [25] 3.51% | viability, T/C [26] 5.33% | viability, T/C [27] 9.94%

C=C(F)C(=O)N1CCN(c2nc(OCC3CCCN3C)nc3c2CCN(c2cccc4cccc(Cl)c24)C3)CC1CC#N (configuration not stated) + Cc1c(S(C)(=O)=O)c(-c2cc(F)cc(N3CCN(c4ccc(NS(=O)(=O)c5ccc(NC(CCN6CCC(C(=O)OCCCP(=O)(O)O)CC6)CSc6ccccc6)c(S(=O)(=O)C(F)(F)F)c5)cc4)CC3)c2)c(-c2ccc(Cl)cc2)n1C(C)C
4.48 µM: IC50 [5]
5.96 µM: IC50 [3]
inactive: viability, T/C [6] 95.8% | viability, T/C [7] 94.5% | viability, T/C [16] 92% | viability, T/C [17] 99.9% | viability, T/C [18] 107% | viability, T/C [19] 74.8% | viability, T/C [8] 87.6% | viability, T/C [9] 95% | viability, T/C [20] 99.3% | viability, T/C [21] 86.4% | viability, T/C [22] 87.4% | viability, T/C [23] 83.5% | viability, T/C [10] 96.6% | viability, T/C [11] 81.3% | viability, T/C [24] 93.5% | viability, T/C [25] 74.9% | viability, T/C [26] 82% | viability, T/C [27] 25.5% | viability, T/C [12] 82.7% | viability, T/C [13] 80.6% | viability, T/C [28] 78.5% | viability, T/C [29] 83.7% | viability, T/C [30] 85.5% | viability, T/C [14] 75.5% | viability, T/C [15] 70.1% | viability, T/C [32] 70.4% | viability, T/C [33] 67.1% | viability, T/C [34] 68.5%
active: viability, T/C [31] 4.09% | viability, T/C [35] 8.1%
5.08 µM: IC50 [4]
> 10 µM: IC50 [1] | IC50 [2]

Reference: PubChem BioAssay AID1963439 (Molecular Pharmacology Branch, DTP, NCI, 2024)
